Patent publication US12077503B2, “Substituted cyclic amides and their use as herbicides” (FMC CORPORATION, priority 2015, dated 2024)

What was measured:
Assay type in all cases: in vivo
Kochia (Kochia scoparia) [1] = experiment: Test A postemergence
Summary of the method: (§1)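 Preemergence soil spray on seeded pots or post-emergence spray on 1–2 leaf plants, in loam–sand blend. Greenhouse ~10 d. Visual rating 0–100 against untreated plants.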

[2] = tested on: Galium (catchweed bedstraw, Galium aparine); experiment: Test A postemergence
Summary of the method: as §1

corn (Zea mays) = experiment: Test A postemergence
Summary of the method: as §1

[3] = tested on: barnyardgrass (Echinochloa crus-galli); experiment: Test A postemergence
Summary of the method: as §1

[4] = tested on: pigweed (Amaranthus retroflexus); experiment: Test A postemergence
Summary of the method: as §1

[5] = tested on: giant foxtail (Setaria faberii); experiment: Test A postemergence
Summary of the method: as §1

[6] = tested on: wheat (Triticum aestivum); experiment: Test A postemergence
Summary of the method: as §1

[7] = tested on: blackgrass (Alopecurus myosuroides); experiment: Test A postemergence
Summary of the method: as §1

[8] = tested on: ryegrass, Italian (Italian ryegrass, Lolium multiflorum); experiment: Test A postemergence
Summary of the method: as §1

[9] = tested on: ragweed (common ragweed, Ambrosia elatior); experiment: Test A postemergence
Summary of the method: as §1

[10] = tested on: sedge, umbrella (small-flower umbrella sedge, Cyperus difformis); experiment: Test B flooded paddy test; settings: Flood, 250 g ai/ha; 0 to 100 scale where 0 is no effect and 100 is complete control; 13 to 15 d
Summary of the method: (§2)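 Rating scale 0–100 (visual, vs untreated controls) after a 13–15 d greenhouse period; application to the flood layer, 3 cm above soil and maintained; plants at 2-leaf stage when treated.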

[11] = tested on: barnyardgrass (Echinochloa crus-galli); experiment: Test B flooded paddy test; settings: Flood, 250 g ai/ha; 0 to 100 scale where 0 is no effect and 100 is complete control; 13 to 15 d
Summary of the method: as §2

[12] = tested on: ducksalad (Heteranthera limosa); experiment: Test B flooded paddy test; settings: Flood, 250 g ai/ha; 0 to 100 scale where 0 is no effect and 100 is complete control; 13 to 15 d
Summary of the method: as §2

rice (Oryra sativa) = experiment: Test B flooded paddy test; settings: Flood, 250 g ai/ha; 0 to 100 scale where 0 is no effect and 100 is complete control; 13 to 15 d
Summary of the method: as §2

Kochia (Kochia scoparia) [13] = experiment: Test A preemergence; settings: Preemergence
Summary of the method: as §1

[14] = tested on: barnyardgrass (Echinochloa crus-galli); experiment: Test A preemergence; settings: Preemergence
Summary of the method: as §1

[15] = tested on: pigweed (Amaranthus retroflexus); experiment: Test A preemergence; settings: Preemergence
[16] = tested on: giant foxtail (Setaria faberii); experiment: Test A preemergence; settings: Preemergence
Summary of the method: as §1

[17] = tested on: ryegrass, Italian (Italian ryegrass, Lolium multiflorum); experiment: Test A preemergence; settings: Preemergence
Summary of the method: as §1

[18] = tested on: ragweed (common ragweed, Ambrosia elatior); experiment: Test A preemergence; settings: Preemergence
Summary of the method: as §1

[19] = tested on: pigweed (Amaranthus retroflexus); experiment: Test C preemergence; settings: for Plant response rating, Pigweed: scale 0 to 100, 0 no effect, 100 complete control
Summary of the method: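 After treatment with surfactant-containing formulations, either preemergence to seeds in loam-sand soil or postemergence to potted seedlings at 2–18 cm, plants were kept 13–15 d in a greenhouse. Observers then compared them with controls and assigned ratings, 0 signifying no effect and 100 complete control.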

[20] = 125 g ai/ha, postemergence, visual injury rating on 0 to 100 scale (0 no effect, 100 complete control), approx. 10 d
[21] = Postemergence, 500 g ai/ha, 0 to 100 scale where 0 is no effect and 100 is complete control
[22] = 125 g ai/ha, visual injury after approximately 10 d, 0 to 100 scale where 0 is no effect and 100 is complete control
[23] = 500 g ai/ha, visual injury approx. 10 d

`O=C1NCC(c2cc(F)cc(C(F)(F)F)c2)C1C(=O)Nc1cccc(F)c1F` (stereo not shown) [Compound 488] was tested, and the “Kochia plant response rating” value (Kochia (Kochia scoparia) [1]; [20]) was 30, the “Plant response rating, Kochia” value (Kochia (Kochia scoparia) [1]; [21]) was 60 and the “Galium plant response rating” value [2, 20] was 50. The “Plant response rating, Galium” value [2, 21] was 50, the “Corn plant response rating” value (corn (Zea mays); [20]) was 70 and the “Plant response rating, Corn” value (corn (Zea mays); [21]) was 80. For the same compound, the “Barnyardgrass plant response rating” value [3, 20] was 90, the “Plant response rating, Barnyardgrass” value [3, 21] was 90 and the “Pigweed plant response rating” value [4, 20] was 40. For the same compound, the “Plant response rating, Pigweed” value [4, 21] was 50, the “Foxtail, Giant plant response rating” value [5, 20] was 90 and the “Plant response rating, Foxtail, Giant” value [5, 21] was 90. The “Wheat plant response rating” value [6, 20] was 50, the “Plant response rating, Wheat” value [6, 21] was 60 and the “Blackgrass plant response rating” value [7, 20] was 60. The “Plant response rating, Blackgrass” value [7, 21] was 70, the “Ryegrass, Italian plant response rating” value [8, 20] was 30 and the “Plant response rating, Ryegrass, Italian” value [8, 21] was 60. For the same compound, the “Ragweed plant response rating” value [9, 20] was 20, the “Plant response rating, Ragweed” value [9, 21] was 20 and the “Plant response rating, Sedge, Umbrella” value [10] was 0. The “Plant response rating, Barnyardgrass” value [11] was 65, the “Plant response rating, Ducksalad” value [12] was 90 and the “Plant response rating, Rice” value (rice (Oryra sativa)) was 30. The “Plant response rating, Kochia” value (Kochia (Kochia scoparia) [13]; [22]) was 70, the “Kochia plant response rating (0 to 100 scale, 0 is no effect, 100 is complete control)” value (Kochia (Kochia scoparia) [13]; [23]) was 70 and the “Plant response rating, Barnyardgrass” value [14, 22] was 90. For the same compound, the “Barnyardgrass plant response rating (0 to 100 scale, 0 is no effect, 100 is complete control)” value [14, 23] was 90, the “Plant response rating, Pigweed” value [15, 22] was 50 and the “Pigweed plant response rating (0 to 100 scale, 0 is no effect, 100 is complete control)” value [15, 23] was 70. For the same compound, the “Plant response rating, Foxtail, Giant” value [16, 22] was 90, the “Foxtail, Giant plant response rating (0 to 100 scale, 0 is no effect, 100 is complete control)” value [16, 23] was 90 and the “Plant response rating, Ryegrass, Italian” value [17, 22] was 30. The “Ryegrass, Italian plant response rating (0 to 100 scale, 0 is no effect, 100 is complete control)” value [17, 23] was 70, the “Plant response rating, Ragweed” value [18, 22] was 70 and the “Ragweed plant response rating (0 to 100 scale, 0 is no effect, 100 is complete control)” value [18, 23] was 80. For the same compound, the “Plant response rating (scale of 0 to 100), Pigweed” value ([19]; 31 g ai/ha, 0 is no effect, 100 is complete control) was 20, the “Plant response rating, Pigweed” value ([19]; 62 g ai/ha) was 75 and the “Plant response rating, Pigweed” value ([19]; 125 g ai/ha) was 70. For the same compound, the “Plant response rating, Pigweed” value ([19]; 250 g ai/ha) was 85.
